Results published in patent publication US11208412B2 (DAEGU-GYEONGBUK MEDICAL INNOVATION FOUNDATION, priority 2017, dated 2021).

What was measured:
Assay in all cases: Kinase selectivity, DiscoverX scanMAX Kinase assay panel (% control)
Type in all cases: binding
[1] = biological target: T1, kinases of the scanMAX Kinase assay panel (Homo sapiens, UniProt Q9Y2U5); settings: MAP3K2; 1 uM
T1 construct: purchased DiscoverX Co. (contract measurement) scanMAX Kinase assay panel
T1 sequence (Q9Y2U5 1-619): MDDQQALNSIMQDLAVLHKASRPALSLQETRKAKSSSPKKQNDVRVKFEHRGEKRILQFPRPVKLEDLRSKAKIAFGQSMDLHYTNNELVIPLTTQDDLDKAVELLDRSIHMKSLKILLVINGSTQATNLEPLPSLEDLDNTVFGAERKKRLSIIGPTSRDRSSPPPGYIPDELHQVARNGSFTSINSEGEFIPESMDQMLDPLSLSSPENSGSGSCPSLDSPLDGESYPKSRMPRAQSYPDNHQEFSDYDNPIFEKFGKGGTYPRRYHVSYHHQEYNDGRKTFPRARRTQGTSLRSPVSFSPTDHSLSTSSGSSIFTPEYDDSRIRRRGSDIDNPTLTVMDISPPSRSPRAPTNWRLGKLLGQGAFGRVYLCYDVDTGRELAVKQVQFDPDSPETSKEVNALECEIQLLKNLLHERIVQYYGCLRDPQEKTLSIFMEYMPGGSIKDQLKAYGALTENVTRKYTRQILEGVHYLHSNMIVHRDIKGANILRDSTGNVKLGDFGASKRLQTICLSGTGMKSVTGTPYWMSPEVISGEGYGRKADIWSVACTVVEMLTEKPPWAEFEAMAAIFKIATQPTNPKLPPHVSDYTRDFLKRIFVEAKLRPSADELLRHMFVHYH
How it was run: (§1)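 Compounds tested at 1 uM against the scanMAX kinase panel. Signal expressed as % control = (compound − positive control)/(DMSO negative control − positive control) × 100, where positive control = 0% and DMSO = 100%; below 35% counted as activity on that kinase.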

[2] = biological target: T2, kinases of the scanMAX Kinase assay panel (Homo sapiens, UniProt P52564); settings: MEK6; 1 uM
T2 construct: purchased DiscoverX Co. (contract measurement) scanMAX Kinase assay panel
T2 sequence (P52564 1-334): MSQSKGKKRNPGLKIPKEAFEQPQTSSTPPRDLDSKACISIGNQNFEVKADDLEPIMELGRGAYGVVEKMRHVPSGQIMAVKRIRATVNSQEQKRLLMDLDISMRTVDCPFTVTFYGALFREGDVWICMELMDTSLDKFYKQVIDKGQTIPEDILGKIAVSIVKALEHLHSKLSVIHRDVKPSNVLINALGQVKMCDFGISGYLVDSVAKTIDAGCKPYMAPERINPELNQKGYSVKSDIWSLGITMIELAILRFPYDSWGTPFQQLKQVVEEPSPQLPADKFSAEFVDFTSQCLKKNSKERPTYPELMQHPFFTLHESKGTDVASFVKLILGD
How it was run: as §1

[3] = biological target: T3, kinases of the scanMAX Kinase assay panel (Homo sapiens, UniProt Q86Y07); settings: kinase VRK2; 1 uM in DMSO
T3 construct: purchased DiscoverX Co. (contract measurement) scanMAX Kinase assay panel
T3 sequence (Q86Y07 whole entry): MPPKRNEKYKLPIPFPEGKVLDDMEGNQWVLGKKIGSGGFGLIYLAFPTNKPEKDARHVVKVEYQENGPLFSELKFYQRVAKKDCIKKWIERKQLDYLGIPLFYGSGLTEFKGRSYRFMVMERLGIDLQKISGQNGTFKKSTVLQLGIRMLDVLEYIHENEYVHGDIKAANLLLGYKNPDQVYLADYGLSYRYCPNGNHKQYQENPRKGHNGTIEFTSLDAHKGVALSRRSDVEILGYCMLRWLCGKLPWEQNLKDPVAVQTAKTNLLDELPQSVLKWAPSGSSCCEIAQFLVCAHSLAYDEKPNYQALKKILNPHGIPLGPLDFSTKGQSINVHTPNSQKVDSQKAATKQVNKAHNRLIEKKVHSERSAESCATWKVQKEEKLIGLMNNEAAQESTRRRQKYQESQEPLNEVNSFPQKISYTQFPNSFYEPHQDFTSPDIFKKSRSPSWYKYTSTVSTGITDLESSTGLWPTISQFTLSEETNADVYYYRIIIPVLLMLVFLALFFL
How it was run: as §1

[4] = biological target: T4, kinases of the scanMAX Kinase assay panel (Homo sapiens, UniProt Q7L7X3); settings: kinase TAOK1; 1 uM in DMSO
T4 construct: purchased DiscoverX Co. (contract measurement) scanMAX Kinase assay panel
T4 sequence (Q7L7X3 1-1001): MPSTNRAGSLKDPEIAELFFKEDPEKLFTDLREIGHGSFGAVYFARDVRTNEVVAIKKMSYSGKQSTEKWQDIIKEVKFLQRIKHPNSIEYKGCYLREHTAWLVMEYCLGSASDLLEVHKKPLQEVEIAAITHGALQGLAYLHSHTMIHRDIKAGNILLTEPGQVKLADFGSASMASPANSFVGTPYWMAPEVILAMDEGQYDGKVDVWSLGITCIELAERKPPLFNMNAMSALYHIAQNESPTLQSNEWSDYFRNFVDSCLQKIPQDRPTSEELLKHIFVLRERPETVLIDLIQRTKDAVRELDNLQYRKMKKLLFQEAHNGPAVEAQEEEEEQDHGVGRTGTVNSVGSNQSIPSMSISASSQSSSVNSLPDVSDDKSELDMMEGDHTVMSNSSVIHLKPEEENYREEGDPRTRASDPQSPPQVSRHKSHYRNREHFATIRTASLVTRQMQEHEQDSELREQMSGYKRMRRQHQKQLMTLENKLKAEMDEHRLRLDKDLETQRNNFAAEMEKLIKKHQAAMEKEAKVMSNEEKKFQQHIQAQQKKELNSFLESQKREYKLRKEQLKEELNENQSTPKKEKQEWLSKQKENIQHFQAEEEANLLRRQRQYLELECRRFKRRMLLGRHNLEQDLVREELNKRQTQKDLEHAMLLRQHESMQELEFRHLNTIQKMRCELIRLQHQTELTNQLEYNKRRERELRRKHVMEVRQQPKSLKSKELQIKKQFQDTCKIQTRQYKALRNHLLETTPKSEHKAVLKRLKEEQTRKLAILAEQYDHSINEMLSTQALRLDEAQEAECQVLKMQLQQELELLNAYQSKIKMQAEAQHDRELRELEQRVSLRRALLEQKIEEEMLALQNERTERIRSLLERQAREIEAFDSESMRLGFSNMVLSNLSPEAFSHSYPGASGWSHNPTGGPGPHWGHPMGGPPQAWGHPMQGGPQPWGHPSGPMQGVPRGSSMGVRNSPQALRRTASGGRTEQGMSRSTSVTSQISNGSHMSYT
How it was run: as §1

[5] = biological target: T5, kinases of the scanMAX Kinase assay panel (Homo sapiens, UniProt Q8IVW4); settings: CDKL3; 1 uM
T5 construct: purchased DiscoverX Co. (contract measurement) scanMAX Kinase assay panel
T5 sequence (Q8IVW4 whole entry): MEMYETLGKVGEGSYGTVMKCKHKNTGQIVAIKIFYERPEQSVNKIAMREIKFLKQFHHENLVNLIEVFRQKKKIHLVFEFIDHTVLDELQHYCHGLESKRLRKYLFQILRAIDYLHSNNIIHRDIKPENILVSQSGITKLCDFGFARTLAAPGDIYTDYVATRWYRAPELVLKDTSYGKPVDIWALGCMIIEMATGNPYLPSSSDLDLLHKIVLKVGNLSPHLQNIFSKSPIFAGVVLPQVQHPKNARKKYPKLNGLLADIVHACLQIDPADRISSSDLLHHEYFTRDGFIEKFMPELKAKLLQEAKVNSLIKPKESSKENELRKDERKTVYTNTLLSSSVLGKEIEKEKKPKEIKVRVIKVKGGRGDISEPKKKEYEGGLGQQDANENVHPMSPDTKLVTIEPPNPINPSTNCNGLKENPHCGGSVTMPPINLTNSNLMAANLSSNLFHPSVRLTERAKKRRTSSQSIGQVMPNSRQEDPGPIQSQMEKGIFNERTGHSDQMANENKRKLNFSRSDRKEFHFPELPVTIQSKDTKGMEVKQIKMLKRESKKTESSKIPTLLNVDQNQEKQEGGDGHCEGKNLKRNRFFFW
How it was run: as §1

[6] = biological target: T6, kinases of the scanMAX Kinase assay panel (Homo sapiens, UniProt Q9Y5S2); settings: MRCKB; 1 uM
T6 construct: purchased DiscoverX Co. (contract measurement) scanMAX Kinase assay panel
T6 sequence (Q9Y5S2 whole entry): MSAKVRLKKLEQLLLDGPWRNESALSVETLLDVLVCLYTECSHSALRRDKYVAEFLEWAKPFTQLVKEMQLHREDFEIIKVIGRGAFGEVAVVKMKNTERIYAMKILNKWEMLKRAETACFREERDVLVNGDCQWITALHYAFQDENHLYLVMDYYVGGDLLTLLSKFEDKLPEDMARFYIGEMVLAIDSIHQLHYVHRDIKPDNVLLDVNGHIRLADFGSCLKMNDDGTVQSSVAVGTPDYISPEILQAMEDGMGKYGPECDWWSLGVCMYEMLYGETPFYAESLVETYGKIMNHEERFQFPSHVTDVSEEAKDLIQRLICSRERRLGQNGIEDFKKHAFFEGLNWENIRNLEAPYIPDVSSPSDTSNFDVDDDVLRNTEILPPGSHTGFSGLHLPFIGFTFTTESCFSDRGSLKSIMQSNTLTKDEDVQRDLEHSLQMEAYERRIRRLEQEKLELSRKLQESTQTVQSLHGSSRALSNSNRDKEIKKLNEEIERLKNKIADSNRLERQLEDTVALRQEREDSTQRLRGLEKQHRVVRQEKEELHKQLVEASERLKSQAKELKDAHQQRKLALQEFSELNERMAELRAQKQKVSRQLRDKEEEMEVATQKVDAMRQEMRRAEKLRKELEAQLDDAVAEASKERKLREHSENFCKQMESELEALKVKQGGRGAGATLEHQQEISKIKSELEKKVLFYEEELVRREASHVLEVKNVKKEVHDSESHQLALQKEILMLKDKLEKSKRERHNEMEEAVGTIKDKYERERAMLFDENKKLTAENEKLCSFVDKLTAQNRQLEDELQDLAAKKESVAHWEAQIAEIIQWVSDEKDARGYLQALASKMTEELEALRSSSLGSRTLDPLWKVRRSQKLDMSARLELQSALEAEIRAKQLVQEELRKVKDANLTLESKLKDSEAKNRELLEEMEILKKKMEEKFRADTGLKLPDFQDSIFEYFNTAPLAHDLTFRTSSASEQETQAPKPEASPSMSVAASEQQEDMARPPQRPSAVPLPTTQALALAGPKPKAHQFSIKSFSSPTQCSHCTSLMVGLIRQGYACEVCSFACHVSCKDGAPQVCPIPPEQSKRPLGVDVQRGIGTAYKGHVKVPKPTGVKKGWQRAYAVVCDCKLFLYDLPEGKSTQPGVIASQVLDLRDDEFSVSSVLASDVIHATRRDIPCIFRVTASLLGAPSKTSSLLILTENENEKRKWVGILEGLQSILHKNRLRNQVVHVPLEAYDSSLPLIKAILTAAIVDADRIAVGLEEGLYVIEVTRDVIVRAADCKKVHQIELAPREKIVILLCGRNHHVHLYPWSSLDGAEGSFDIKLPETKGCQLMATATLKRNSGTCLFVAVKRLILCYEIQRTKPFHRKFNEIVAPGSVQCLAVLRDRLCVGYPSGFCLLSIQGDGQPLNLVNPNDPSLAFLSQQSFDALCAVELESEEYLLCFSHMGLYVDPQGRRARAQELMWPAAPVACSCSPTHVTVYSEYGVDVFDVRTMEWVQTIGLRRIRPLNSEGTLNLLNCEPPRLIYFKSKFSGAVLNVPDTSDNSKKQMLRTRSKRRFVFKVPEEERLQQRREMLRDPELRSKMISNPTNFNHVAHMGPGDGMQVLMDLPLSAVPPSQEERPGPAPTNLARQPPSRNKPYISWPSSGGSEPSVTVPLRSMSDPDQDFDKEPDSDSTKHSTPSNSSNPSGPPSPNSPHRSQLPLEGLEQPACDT
How it was run: as §1

Row | SMILES | remaining binding at 1 µM [1] [%] | remaining binding at 1 µM [2] [%] | remaining binding at 1 µM [3] [%] | remaining binding at 1 µM [4] [%] | remaining binding at 1 µM [5] [%] | remaining binding at 1 µM [6] [%]
1 | CNc1nc(Nc2ccc(C(=O)N3CCOCC3)cc2OC)nc2[nH]cc(C#N)c12 [Example 1, 2-((2-methoxy-4-(morpholine-4-carbonyl)phenyl)amino)-4-(methylamino)-7H-pyrrolo[2,3-d]pyrimidine-5-carbonitrile] | 85 | 43 | 71 | 73 | 93 | 100
2 | CC1(Nc2nc(Nc3cnn([C@H]4CCN(C5COC5)C[C@@H]4F)c3Cl)nc3[nH]cc(C#N)c23)CC1 [Example 52, 2-((5-chloro-1-((3S,4S)-3-fluoro-1-(oxetane-3-yl)piperidine-4-yl)-1H-pyrazole-4-yl)amino)((1-methylcyclopropyl)amino)-7H-pyrrolo[2,3-d]pyrimidine-5-carbonitrile] | 0.05 | 19 | 100 | 6.5 | 100 | 89
3 | CCNc1nc(Nc2ccc(C(=O)N3CCC(N4CCOCC4)CC3)cc2OC)nc2[nH]cc(C(F)(F)F)c12 [Example 104, (4-((4-(ethylamino)-5-(trifluoromethyl)-7H-pyrrolo[2,3-d]pyrimidine-2-yl)amino)-3-methoxyphenyl)(4-morpholinopiperidine-1-yl)methanone] | 92 | 92 | 100 | 85 | 100 | 100
